Reference: patent US20230140670A1, “FORMULATIONS” (Intellia Therapeutics, Inc., priority 2017, published 2023)

System: TTR
Assay: Liver editing in mice by NGS (percent editing)
Type: in vivo, mouse
Conditions: CD-1 mice; 0.1 mg per kg; 7 days post dose; FIG. 7F-7G
Procedure: CD-1 female mice, ranging from 6 to 10 weeks of age were used in each study. Animals were weighed and grouped according to body weight for preparing dosing solutions based on group average weight. LNPs were dosed via the lateral tail vein in a volume of 0.2 mL per animal (approximately 10 mL per kilogram body weight). […] Body weight was measured at twenty-four hours post-administration, and animals were euthanized at various time points by exsanguination via cardiac puncture under isoflurane anesthesia. Blood was collected into serum separator tubes or into tubes containing buffered sodium citrate for plasma as described herein. […]
In brief, to quantitatively determine the efficiency of editing at the target location in the genome, genomic DNA was isolated and deep sequencing was utilized to identify the presence of insertions and deletions introduced by gene editing.
PCR primers were designed around the target site (e.g., TTR), and the genomic area of interest was amplified. […] The reads were aligned to the […] after eliminating those having low quality scores. The resulting files containing the reads were mapped to the reference genome (BAM files), where reads that overlapped the target region of interest were selected and the number of wild type reads versus the number of reads which contain an insertion, substitution, or deletion was calculated. […]

Which “potency (TTR knockdown and liver editing)” value does the source give for `CCCCC/C=C\C/C=C\CCCCCCCC(=O)OCC(COC(=O)CCC(OCCCCCCCC)OCCCCCCCC)COC(=O)OCCCN(CC)CC` (stereo not shown) [Lipid A, (9Z,12Z)-3-((4,4-bis(octyloxy)butanoyl)oxy)-2-((((3-(diethylamino)propoxy)carbonyl)oxy)methyl) propyl octadeca-9,12-dienoate] here?
The value was “highest potency”.
